Target: Nucleotide-binding oligomerization domain-containing protein 2 (Homo sapiens, UniProt Q9HC29)
Assay: inhibition of NOD2 signaling – set 2, SAR follow-up (AID 2475)

Chain of Nucleotide-binding oligomerization domain-containing protein 2 (Q9HC29 whole entry, the tested form may be a part): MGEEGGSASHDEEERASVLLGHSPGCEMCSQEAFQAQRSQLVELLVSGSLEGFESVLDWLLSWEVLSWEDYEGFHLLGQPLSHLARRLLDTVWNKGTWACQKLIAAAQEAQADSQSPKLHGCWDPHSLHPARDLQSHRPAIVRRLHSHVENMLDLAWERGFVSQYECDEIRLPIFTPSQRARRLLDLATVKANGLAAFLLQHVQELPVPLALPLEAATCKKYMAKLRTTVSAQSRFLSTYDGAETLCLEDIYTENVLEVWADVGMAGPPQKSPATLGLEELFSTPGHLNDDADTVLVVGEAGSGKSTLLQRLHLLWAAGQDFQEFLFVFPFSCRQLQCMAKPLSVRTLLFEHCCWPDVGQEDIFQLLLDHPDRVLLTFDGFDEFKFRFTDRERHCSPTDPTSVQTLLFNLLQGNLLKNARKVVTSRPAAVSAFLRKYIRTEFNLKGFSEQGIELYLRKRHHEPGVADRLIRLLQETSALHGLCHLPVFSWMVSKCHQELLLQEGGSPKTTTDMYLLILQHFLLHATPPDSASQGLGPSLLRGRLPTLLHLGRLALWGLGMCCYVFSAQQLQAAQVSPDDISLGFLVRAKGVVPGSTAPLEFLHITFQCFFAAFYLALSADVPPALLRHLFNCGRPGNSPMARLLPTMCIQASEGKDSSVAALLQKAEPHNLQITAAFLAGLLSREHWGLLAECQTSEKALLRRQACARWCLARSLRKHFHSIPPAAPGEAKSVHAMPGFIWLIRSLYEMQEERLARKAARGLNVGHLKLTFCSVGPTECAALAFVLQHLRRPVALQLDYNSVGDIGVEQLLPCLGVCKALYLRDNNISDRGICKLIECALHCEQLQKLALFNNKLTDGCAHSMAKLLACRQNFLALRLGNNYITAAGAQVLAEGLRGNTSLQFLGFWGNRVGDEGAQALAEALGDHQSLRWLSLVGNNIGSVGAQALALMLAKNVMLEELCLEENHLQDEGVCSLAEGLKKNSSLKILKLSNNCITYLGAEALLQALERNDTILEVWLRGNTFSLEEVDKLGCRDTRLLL

SMILES	IC50
Cc1cc(SCC(=O)OCC(=O)C(C#N)c2nc3ccccc3[nH]2)c(C)cc1Br (configuration not stated)	5.19 µM
Cc1ccc(C)c(SCC(=O)OCC(=O)C(C#N)c2nc3ccccc3[nH]2)c1 (configuration not stated) [MLS000392255]	4.21 µM

— BindingDB's records for doi:10.7270/Q2JW8CBM (Burnham Center For Chemical Genomics, 2010)
